# Results as given in patent US4624950A, “Method for treating atherosclerosis hyperlipidema, lipid deposition on arterial walls, or raising the ratio of high density lipoprotein cholesterol to total cholesterol in serum” (Nissan Chemical Industries Ltd., priority 1983, dated 1986).
# Where two headings read alike, the source gives them in different places.
# Key:
# [1] = system: Triton-induced hyperlipidemic rats; test: Antihyperlipidemic activity in Triton-induced hyperlipidemic rats, method B (43 hours) (Test 2); assay type: in vivo, rat (male S.D.)
# Method: (§1) Cholesterol in serum was measured by means of a cholesterol measuring kit (Cholesterol C-Test Wako, manufactured by Wako Junyaku Co., Ltd.), and cholesterol in HDL was measured by means of NC Hi-Set, manufactured by Nippon Chemiphar Co., Ltd. The quantitative analysis of triglyceride was conducted by means of a triglyceride measuring kit (Triglyceride C-II-Test Wako, manufactured by Wako Junyaku Co., Ltd.). Further, the change rate in the following Tables, was calculated by the following equation. Change rate(%)=(A-B/A)×100 where A is the amount of serum lipids (mg/dl) of the control group, and B is the amount of serum lipids (mg/dl) of the group to which the therapeutic agent was administered. The antihyperlipidemic activity in Triton-induced hyperlipidemic rats Male S.D. rats weighing 230-250 g (7 weeks old) were divided into groups of 5 rats each and injected with a physiological saline solution of Triton Wr-1339 in a dose of 250 mg/kg (5 ml/kg) i.v. through the tail vein. […] The test compounds suspended in 0.5% CMC-Na were given to the rats in an amount of 2 ml/kg via stomach tube 1 hour before and 5 hours after (in the case of method A) or 1 hour before and 23 hours after (in the case of method B) the injection of Triton solution. Control rats received the same volume of the vehicle. The animals were fasted during the experimental period. The total cholesterol and triglyceride in the serum were measured.
# cytochrome P-450 = test: Effect on cytochrome P-450 / hepatic drug metabolizing systems of normal rats (Test 5); assay type: in vivo, rat (male S.D.); settings: 300 mg/kg/day, seven days
# Method: (§2) The activities against serum lipid, the degree of hepatomegaly and the hepatic drug metabolizing systems of normal rats
# (§3) Male S.D. rats (6 weeks old) were divided into groups of 5 rats each. The test compounds suspended in 5% gum arabic were given to the rats once a day for seven days in a daily dose of 300 mg/kg. Then, the rats were fasted for one day, blood samples were taken, and the total cholesterol, triglyceride, HDL-cholesterol in the serum were quantitatively analyzed. Further, the liver weight was measured, and the degree of hepatomegaly was determined by comparing the weight ratio per 100 g of the body weight with that of the control group. Furthermore, GOT and GPT values were measured, and the activities of cytochrome P-450 and glutathione related enzymes were also measured. These values were compared with those of the control groups to investigate any abnormality.
# [2] = system: Escherichia coli (WP2UVrA); settings: up to 5000 μg/Plate, absence or presence of S-9 mix of rat liver
# Method: (§4) The mutagenicity was tested by using Escherichia coli (WP2UVrA) and Salmonella (TA98, TA100, TA1535 and TA1538) in the absence or presence of a drug metabolizing enzymes S-9 mix of rat liver.
# normal rats = test: Activities against serum lipid, degree of hepatomegaly and GOT/GPT in normal rats (Test 5); assay type: in vivo, rat (male S.D.); settings: 300 mg/kg/day, seven days
# Method: It is administered from once to three times per day. The dose may of course be varied depending upon the age, the weight or the condition of illness of the patient. […] In the following tests, the fractionation of lipoproteins was conducted by a dextran sulfate-MgCl2 precipitation method.
# (§5) Cholesterol in serum was measured by means of a cholesterol measuring kit (Cholesterol C-Test Wako, manufactured by Wako Junyaku Co., Ltd.), and cholesterol in HDL was measured by means of NC Hi-Set, manufactured by Nippon Chemiphar Co., Ltd. The quantitative analysis of triglyceride was conducted by means of a triglyceride measuring kit (Triglyceride C-II-Test Wako, manufactured by Wako Junyaku Co., Ltd.).
# (§6) Further, the change rate in the following Tables, was calculated by the following equation.
# (§7) Change rate(%)=(A-B/A)×100
# (§8) where A is the amount of serum lipids (mg/dl) of the control group, and B is the amount of serum lipids (mg/dl) of the group to which the therapeutic agent was administered.
# as §2, §3
# [3] = Acute toxicity test (Test 7); settings: mouse, in vivo, mortality after seven days, read-out: Acute toxicity: dose up to which no toxicity was shown
# Method: The test compounds suspended in 0.5% CMC-Na were administered p.o. or injected i.p. to male ddY mice. The acute toxicity was dertermined based on the mortality after seven days.
# [4] = system: Triton-induced hyperlipidemic rats; test: Antihyperlipidemic activity in Triton-induced hyperlipidemic rats, method A (24 hours) (Test 2); assay type: in vivo, rat (male S.D.)
# Method: as §1
# [5] = system: emulsion-induced hyperlipidemic rats; test: Antihyperlipidemic activity in emulsion-induced hyperlipidemic rats (Test 1); assay type: in vivo, rat (male S.D.); settings: 300 mg/kg/day p.o., 3 days
# Method: The daily dose of the compound of the formula I is from 0.01 to 3.0 g, preferably from 0.1 to 1.5 g, for an adult. It is administered from once to three times per day. The dose may of course be varied depending upon the age, the weight or the condition of illness of the patient. Now, the usefulness of the compound of the formula I as an antiatherosclerotic agent will be shown by tests. In the following tests, the fractionation of lipoproteins was conducted by a dextran sulfate-MgCl2 precipitation method.
# as §5, §6, §7, §8
# The antihyperlipidemic activity in emulsion-induced hyperlipidemic rats
# Male S.D. rats weighing 80-90 g (4 weeks old) were used. They were divided into groups of 5 to 6 rats each. The test compounds suspended in 0.5% CMC-Na(carboxymethyl cellulose sodium salt) were given to the rats in a daily dose of 4 ml/kg via stomach tube every 10:00 a.m. After 30 min., lipids emulsion having the following composition was orally given to the rats in an amount of 2.5 ml per rat. During the experimental period of 3 days, the rats were fed on a standard commercial diet and water ad libitum. […] The total cholesterol and triglyceride, and HDL cholesterol were measured.
# [6] = system: Salmonella (TA98, TA100, TA1535 and TA1538); test: Mutagenicity test, Salmonella (Test 6); settings: up to 5000 μg/Plate, absence or presence of S-9 mix of rat liver
# Method: as §4
smiles,measurement,setting,value
"CN1C(=S)SC(c2ccccc2)N(C)C1c1ccccc1 (stereo not drawn) [Compound of the formula I, 3,5-dimethyl-4,6-diphenyl-tetrahydro-2H-1,3,5-thiadiazine-2-thione]","Change rate after 43 hours, Chol",[1]; 150 mg/kg p.o.,-43.5%
same,"Change rate after 43 hours, TG",[1]; 150 mg/kg p.o.,-65.7%
same,Lipid reducing activity (in words),[1]; method B,distinc lipid reducing activity
same,Abnormalities in activity against cytochrome P-450 or other liver microsome drug metabolizing systems (in words),cytochrome P-450,no abnormalities were observed
same,Mutagenicity,[2],did not show any mutagenicity
same,Hepatic insufficiency from GOT and GPT values (in words),normal rats,No hepatic insufficiency was observed
same,Hepatomegaly (in words),normal rats,no substantial hepatomegaly
same,LDL-cholesterol reduction (in words),normal rats,ramarkably reduces LDL-cholesterol
same,"Serum lipid, HDL-Chol",normal rats,29.2 mg/dL
same,"Serum lipid, TG",normal rats,37.5 mg/dL
same,"Serum lipid, Total-Chol",normal rats,39.2 mg/dL
same,"Change rate, HDL-Chol",normal rats; vs control,-1.0%
same,"Change rate, TG",normal rats; vs control,-21.0%
same,"Change rate, Total-Chol",normal rats; vs control,-16.2%
same,Degree of hepatomegaly,normal rats; vs control,+7.0%
same,NOAEL at 168 h,"[3]; ip, abdominal (i.p.) administration",≥ 4000 mg/kg
same,NOAEL at 168 h,[3]; oral administration,≥ 8000 mg/kg
same,"Change rate after 24 hours, Chol",[4]; 150 mg/kg p.o.,-6.0%
same,"Change rate after 24 hours, TG",[4]; 150 mg/kg p.o.,+21.8%
same,Lipid reducing activity (in words),[4]; method A,no lipid reducing activity was observed
same,"Serum lipid, HDL-Chol",[5],22.1 mg/dL
same,"Serum lipid, TG",[5],97.4 mg/dL
same,"Serum lipid, Total Chol",[5],145 mg/dL
same,"Change rate, HDL-Chol",[5]; vs control,+80.6%
same,"Change rate, TG",[5]; vs control,-36%
same,"Change rate, Total Chol",[5]; vs control,-45.0%
same,Mutagenicity,[6],did not show any mutagenicity
